In data set [1] the test system is Escherichia coli. The experiment in a line: microbe, parasite or virus in culture.
Data set [2] relates to Vero. Kind of data set: cells. The class given is functional. The conditions noted are these: Chlorocebus sabaeus.
Data set [3] has as its target Cytochrome P450 2D6 (Homo sapiens, UniProt P10635).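 Also: CYP2D6 member of a cytochrome P450 panel assay.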
For data set [4], the target named is Cytochrome P450 3A4 (Homo sapiens, UniProt P08684).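 Also: CYP3A4 tested as one member of a cytochrome P450 panel screen.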
The target in data set [5] is Cytochrome P450 2C9 (Homo sapiens, UniProt P11712).
For data set [6], the target named is T1, Exodeoxyribonuclease V (Escherichia coli (strain K12), UniProt P04993+P07648+P08394).
T1 sequence (P04993 whole entry): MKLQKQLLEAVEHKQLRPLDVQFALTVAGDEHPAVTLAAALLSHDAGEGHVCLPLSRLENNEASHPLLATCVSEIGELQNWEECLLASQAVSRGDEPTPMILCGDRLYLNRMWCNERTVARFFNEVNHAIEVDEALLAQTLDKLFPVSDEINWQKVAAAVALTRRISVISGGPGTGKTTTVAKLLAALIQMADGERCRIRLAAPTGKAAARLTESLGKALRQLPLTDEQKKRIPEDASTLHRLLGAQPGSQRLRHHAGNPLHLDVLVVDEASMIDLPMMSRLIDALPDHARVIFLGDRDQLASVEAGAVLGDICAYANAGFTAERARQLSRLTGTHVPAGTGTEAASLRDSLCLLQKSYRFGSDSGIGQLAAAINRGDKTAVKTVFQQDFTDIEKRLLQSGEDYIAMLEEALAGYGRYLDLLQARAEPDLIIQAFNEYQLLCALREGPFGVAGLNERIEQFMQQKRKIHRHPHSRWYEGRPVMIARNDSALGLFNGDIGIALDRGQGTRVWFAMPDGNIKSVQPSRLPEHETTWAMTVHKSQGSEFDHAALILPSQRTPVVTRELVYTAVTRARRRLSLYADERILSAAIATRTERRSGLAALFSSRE
T1 sequence (P07648 whole entry): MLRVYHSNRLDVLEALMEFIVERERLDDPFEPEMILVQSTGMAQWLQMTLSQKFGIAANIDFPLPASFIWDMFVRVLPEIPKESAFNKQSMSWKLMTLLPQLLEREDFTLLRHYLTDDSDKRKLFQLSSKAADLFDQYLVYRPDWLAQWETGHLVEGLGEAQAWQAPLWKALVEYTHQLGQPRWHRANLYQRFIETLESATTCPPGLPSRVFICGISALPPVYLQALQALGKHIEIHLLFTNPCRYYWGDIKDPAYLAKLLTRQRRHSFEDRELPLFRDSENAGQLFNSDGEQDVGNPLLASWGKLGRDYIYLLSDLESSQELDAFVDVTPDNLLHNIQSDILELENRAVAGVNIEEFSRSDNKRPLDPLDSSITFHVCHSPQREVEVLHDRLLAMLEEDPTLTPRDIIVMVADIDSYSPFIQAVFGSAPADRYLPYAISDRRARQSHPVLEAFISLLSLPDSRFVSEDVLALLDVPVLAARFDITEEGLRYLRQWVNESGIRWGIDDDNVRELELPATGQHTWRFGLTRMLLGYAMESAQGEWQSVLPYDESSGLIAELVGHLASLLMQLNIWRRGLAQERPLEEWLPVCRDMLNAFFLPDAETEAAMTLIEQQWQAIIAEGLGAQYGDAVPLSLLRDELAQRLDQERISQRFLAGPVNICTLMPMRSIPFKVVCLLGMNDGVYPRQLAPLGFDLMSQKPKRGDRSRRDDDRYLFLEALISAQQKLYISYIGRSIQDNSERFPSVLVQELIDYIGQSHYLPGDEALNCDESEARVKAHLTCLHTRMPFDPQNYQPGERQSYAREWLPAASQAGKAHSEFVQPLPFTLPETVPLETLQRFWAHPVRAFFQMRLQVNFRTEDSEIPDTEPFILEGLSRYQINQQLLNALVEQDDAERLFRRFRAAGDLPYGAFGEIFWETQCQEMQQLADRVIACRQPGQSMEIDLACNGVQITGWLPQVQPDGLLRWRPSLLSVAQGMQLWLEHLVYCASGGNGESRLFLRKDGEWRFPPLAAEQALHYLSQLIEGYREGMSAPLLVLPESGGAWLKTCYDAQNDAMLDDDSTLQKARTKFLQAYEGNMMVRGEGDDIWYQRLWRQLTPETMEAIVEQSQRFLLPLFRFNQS
T1 sequence (P08394 whole entry): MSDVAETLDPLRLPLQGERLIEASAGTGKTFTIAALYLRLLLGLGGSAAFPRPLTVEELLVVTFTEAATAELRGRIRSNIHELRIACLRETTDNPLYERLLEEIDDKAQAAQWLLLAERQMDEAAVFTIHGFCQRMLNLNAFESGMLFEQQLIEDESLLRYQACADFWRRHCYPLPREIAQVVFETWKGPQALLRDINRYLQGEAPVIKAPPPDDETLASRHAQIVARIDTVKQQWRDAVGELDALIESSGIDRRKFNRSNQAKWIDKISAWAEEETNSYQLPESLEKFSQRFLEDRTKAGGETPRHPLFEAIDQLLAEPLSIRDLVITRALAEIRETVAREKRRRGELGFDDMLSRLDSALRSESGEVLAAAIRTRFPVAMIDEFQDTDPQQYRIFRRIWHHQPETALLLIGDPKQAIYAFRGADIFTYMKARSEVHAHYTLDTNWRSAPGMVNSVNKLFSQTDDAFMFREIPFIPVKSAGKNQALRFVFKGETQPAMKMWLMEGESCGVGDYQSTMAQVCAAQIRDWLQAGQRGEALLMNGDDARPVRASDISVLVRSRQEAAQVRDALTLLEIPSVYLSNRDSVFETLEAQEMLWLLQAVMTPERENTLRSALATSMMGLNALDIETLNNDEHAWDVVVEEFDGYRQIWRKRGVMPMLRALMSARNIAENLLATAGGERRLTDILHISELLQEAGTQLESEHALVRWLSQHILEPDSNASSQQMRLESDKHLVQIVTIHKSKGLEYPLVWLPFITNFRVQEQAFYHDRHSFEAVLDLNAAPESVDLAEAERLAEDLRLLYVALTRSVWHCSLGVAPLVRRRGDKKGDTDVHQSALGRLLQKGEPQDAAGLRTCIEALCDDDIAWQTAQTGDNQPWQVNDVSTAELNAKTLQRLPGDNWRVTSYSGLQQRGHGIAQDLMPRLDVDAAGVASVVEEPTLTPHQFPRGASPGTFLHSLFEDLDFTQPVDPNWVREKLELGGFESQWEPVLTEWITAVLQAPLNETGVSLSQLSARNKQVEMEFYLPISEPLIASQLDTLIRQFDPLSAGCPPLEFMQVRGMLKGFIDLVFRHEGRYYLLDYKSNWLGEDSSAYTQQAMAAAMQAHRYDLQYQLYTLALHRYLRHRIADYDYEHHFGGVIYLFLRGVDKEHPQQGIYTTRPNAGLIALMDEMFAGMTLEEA
Kind of data set: E. coli RecBCD inhibitors, dose response, counter-screen for AddAB inhibitor project, absorbance, V66 E. coli, mutant T4 phage (AID 492957). The class given is functional, cell-based, Escherichia coli str. K-12 substr. MG1655. (In general: The purpose of a counterscreen is to sort out artefacts and off-target activity.)

Data set [7] is described as follows: Counterscreen for AddAB inhibitors: absorbance-based bacterial cell-based high throughput dose response assay for inhibitors of bacterial viability. [Related pubchem assays (depositor defined):AID435030, AID449728, AID449731, AID488942, AID488955, AID488956]. The class given is functional.
Data set [8] is described as follows: NIH-3T3 fibroblast cytotoxicity, dose response, cytotoxicity control, cell-based, fluorescence, Alamar Blue, secondary assay (AID 2327).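 Also: NIH-3T3 mouse fibroblasts cultured with fluconazole at 8 µg/mL.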 In kind it is functional.
Data set [9] in a line: inhibitors of firefly luciferase expression or activity, dose response, H4 neuroglioma cells, luminescence (AID 1990). In kind it is functional, cell-based.
Data set [10] is described as follows: cells. In kind it is functional, cell-based.
Data set [11] can be described thus: Luminescence Cell-Based Dose Response HTS to Identify Inhibitors of 5'UTR Stem-Loop Driven Prion Protein mRNA Translation in H4 Neuroglioblastoma Cells. [Related pubchem assays: 1827 (Project Summary), 1813 (Primary HTS)]. In kind it is functional.
The nature of data set [12]: inhibitors of SNCA 5'UTR-driven reporter translation, confirmation, H4 neuroglioma cells, luminescence (AID 1988). In kind it is functional, cell-based.
Data set [13] can be described thus: inhibitors of intracellular T. cruzi replication, confirmation, NIH3T3 host cells, beta-gal luminescence (AID 2044).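 Also: intracellular parasites grown in NIH/3T3 mouse fibroblasts as host cells; luminescent beta-galactosidase reporter signal from transgenic T. cruzi replicating inside host cells; inhibitors lower the luminescence signal.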 In kind it is functional, cell-based.
Data set [14] in a line: cells. The class given is functional, cell-based. This is another data set of the same source.
Data set [15] is described as follows: cytotoxicity toward NIH3T3 fibroblasts, dose response, counter-screen, cell-based, ATP luminescence, mouse fibroblasts (AID 2010).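 Also: cells exposed to compound for about 90 hours before reading.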 In kind it is functional.
For data set [16], the system named is INS1. The experiment in a line: beta cell apoptosis inhibitors, cytokine rescue, dose response, luminescence, retest (AID 449756).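 Also: cell death triggered by IL-1 beta plus TNF-alpha plus IFN-gamma mixture; protective hits raise ATP signal compared with cytokine alone wells.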 In kind it is functional, cell-based. The conditions noted are these: Rattus norvegicus.

The term AC50 denotes the concentration giving half of the maximal activity seen. A word on the CC50: it is the concentration at which the toxic effect on the cells reaches its halfway point. As a reminder, the IC50 is the concentration at which inhibition is half-maximal. The EC50 is the concentration giving half of the maximal effect.

Active and inactive are the calls of the source.

Cytochrome P450 2C9, sequence (P11712 whole entry): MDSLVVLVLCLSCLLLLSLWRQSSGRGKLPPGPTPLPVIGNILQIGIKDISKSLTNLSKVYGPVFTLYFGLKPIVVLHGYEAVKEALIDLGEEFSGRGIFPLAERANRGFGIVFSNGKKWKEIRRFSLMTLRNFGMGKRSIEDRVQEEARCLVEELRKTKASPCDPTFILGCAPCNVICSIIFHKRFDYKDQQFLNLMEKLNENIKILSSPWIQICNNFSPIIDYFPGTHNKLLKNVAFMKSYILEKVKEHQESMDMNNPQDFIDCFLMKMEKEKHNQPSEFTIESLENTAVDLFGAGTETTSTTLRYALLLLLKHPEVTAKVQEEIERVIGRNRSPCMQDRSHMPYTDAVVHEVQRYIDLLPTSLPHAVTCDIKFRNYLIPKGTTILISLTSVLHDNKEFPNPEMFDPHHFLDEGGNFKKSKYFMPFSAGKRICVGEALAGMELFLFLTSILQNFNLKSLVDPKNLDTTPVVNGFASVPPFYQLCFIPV
Cytochrome P450 2D6, sequence (P10635 whole entry): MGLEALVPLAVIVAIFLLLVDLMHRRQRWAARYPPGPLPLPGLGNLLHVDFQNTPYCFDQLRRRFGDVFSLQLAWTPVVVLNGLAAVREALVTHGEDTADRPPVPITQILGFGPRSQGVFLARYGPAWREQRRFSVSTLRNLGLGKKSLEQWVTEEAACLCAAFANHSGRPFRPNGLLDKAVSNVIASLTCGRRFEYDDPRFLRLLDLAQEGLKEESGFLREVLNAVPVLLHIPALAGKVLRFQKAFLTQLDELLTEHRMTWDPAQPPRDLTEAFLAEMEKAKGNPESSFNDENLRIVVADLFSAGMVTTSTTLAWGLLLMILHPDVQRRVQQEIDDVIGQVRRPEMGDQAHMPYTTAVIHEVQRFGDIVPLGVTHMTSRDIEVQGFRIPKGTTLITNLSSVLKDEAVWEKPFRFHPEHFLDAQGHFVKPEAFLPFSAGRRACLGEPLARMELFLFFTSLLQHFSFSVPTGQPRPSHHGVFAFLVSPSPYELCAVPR
Cytochrome P450 3A4, sequence (P08684 whole entry): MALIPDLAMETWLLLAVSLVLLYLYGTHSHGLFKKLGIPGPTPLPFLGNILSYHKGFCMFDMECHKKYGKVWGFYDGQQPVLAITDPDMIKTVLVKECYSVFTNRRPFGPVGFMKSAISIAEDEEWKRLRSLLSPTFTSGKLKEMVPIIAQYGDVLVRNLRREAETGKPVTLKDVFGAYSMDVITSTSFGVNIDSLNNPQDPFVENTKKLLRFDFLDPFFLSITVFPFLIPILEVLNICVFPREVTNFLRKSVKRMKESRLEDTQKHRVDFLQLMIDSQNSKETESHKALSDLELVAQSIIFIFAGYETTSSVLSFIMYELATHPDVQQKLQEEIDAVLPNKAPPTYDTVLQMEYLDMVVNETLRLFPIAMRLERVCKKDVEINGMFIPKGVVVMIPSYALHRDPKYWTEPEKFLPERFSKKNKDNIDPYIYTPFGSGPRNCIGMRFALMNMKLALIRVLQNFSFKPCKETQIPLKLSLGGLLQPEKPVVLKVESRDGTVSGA

For `CCC(C)n1nccc1NC(=O)C(C)Cl` (stereo not given), in [1], the concentration at half-maximal activity (AC50) was 31.4 µM (active).
`COc1ccc(Nc2nc(-c3ccccc3)nc3ccccc23)cc1S(=O)(=O)N1CCOCC1`: the half-maximal cytotoxic concentration (CC50) in [2] is > 25 µM (active).
Regarding `CN(C)C(=O)N1CCCC(C(=O)NCCc2ccccc2)C1` (stereo not given), the AC50 in data set [3] was 10 µM (inconclusive); in [4], 39.8 µM (inconclusive); in data set [5] it was “inconclusive”.
As to `COc1cccc(-c2nc(N(C)C)c3ccccc3n2)c1`, in data set [5], the concentration at half-maximal activity (AC50) entry was “inconclusive”.
As for `CN1CCCC2(CCN(C(=O)c3ccncc3)CC2)C1`, the figures for the AC50 in [3] and in data set [5] were 7.94 µM (inconclusive) and “inconclusive”, respectively.
Regarding `Cc1ccnc(NS(=O)(=O)c2ccc(N)cc2)n1` [SULFAMERAZINE], the half-maximal activity concentration (AC50) entry in data set [5] was “inconclusive”.
Take `COc1ccc(NC(=O)C2CCN(Cc3cnn(-c4ccccc4)c3-n3cccc3)CC2)cc1OC`: the AC50 in [1] was > 150 µM (inactive).
`COc1ccc(NC(=O)Cn2cc(C(=O)c3ccco3)c3ccccc32)cc1`: the IC50 in data set [6] and in data set [7] was > 119 µM (inactive) in each case.
Turning to `Cc1cc(C(=O)N2CCN(c3ccccc3)CC2)no1`, the AC50 in [1] is 28.2 µM (active).
In the case of `COc1cccc(/C=N\NC(=O)c2ccc(Cn3cc(Br)c([N+](=O)[O-])n3)o2)c1O`, the EC50 is > 150 µM (inactive) in data set [8]; 26 µM (active) in [9]; 51.1 µM (active) in data set [10]; 20.2 µM (active) in data set [11]; 10.4 µM (active) in data set [12]; 1.09 µM (active) in [13]. Besides, the EC50 in data set [14] is 28.6 µM (active); in data set [15] it was > 60 µM (not active). The IC50 was > 119 µM (inactive) in [6] and 31.8 µM (inactive) in data set [7]. In addition, the half-maximal activity concentration (AC50) in data set [16] is 1.89 µM (active).
Regarding `CCn1cc(C(=O)NCCCO)c(=O)c2cc(F)c(N3CCN(C)CC3)cc21`, in data set [1], the half-maximal activity concentration (AC50) is 2.5 µM (active).
